Laboratory results: ChEMBL document CHEMBL1909046, “DrugMatrix in vitro pharmacology data”

Assays:
[1] = biological target: T1, Alpha-2C adrenergic receptor (Homo sapiens, UniProt P18825); assay: DRUGMATRIX: Adrenergic Alpha-2C radioligand binding (ligand: [3H] MK-912); format: cell membranes, Sf9, Membrane; details: sf9
T1 sequence (P18825 whole entry): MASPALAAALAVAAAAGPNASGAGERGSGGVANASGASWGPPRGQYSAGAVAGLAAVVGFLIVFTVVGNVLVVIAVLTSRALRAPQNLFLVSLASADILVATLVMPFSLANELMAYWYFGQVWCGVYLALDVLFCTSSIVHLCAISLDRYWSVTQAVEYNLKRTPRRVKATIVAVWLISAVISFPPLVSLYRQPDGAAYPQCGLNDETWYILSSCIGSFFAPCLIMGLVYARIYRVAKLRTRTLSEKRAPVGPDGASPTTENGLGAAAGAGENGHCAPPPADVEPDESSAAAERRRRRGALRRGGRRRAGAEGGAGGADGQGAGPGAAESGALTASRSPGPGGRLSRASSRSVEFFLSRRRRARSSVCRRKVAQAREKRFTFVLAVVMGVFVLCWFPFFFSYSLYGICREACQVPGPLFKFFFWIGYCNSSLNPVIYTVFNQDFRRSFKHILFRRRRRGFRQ

[2] = biological target: Beta-1 adrenergic receptor (Homo sapiens, UniProt P08588); assay: DRUGMATRIX: Adrenergic beta1 radioligand binding (ligand: [125I] Cyanopindolol); format: cell membranes, CHO-K1, Membrane; details: cho-k1; Not Active = under 50% inhibition at 10 µM
[3] = biological target: Aldo-keto reductase family 1 member B1 (Rattus norvegicus, UniProt P07943); assay: biochemical; format: tissue-based, Lens of camera-type eye;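 further: inhibition of aldose reductase enzyme activity, measured with DL-glyceraldehyde as the substrate; in other assays of this panel Not Active means under 50% inhibition at 10 µM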
[4] = biological target: T2, C-X-C chemokine receptor type 1 (Homo sapiens, UniProt P25024); further: in other assays of this panel Not Active means under 50% inhibition at 10 µM
T2 sequence (P25024 whole entry): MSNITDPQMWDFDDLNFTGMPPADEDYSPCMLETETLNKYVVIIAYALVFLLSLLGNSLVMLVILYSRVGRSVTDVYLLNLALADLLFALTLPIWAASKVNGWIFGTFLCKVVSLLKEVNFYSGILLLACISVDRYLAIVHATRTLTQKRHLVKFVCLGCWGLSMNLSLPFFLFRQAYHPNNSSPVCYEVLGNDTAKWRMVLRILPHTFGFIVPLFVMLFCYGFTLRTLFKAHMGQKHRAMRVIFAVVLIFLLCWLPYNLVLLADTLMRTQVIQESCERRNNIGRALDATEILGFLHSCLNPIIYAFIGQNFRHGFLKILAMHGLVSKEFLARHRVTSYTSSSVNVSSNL

[5] = biological target: T3, Endothelin-1 receptor (Homo sapiens, UniProt P25101); format: cell membranes, Membrane; details: cho-k1; further: in other assays of this panel Not Active means under 50% inhibition at 10 µM
T3 sequence (P25101 whole entry): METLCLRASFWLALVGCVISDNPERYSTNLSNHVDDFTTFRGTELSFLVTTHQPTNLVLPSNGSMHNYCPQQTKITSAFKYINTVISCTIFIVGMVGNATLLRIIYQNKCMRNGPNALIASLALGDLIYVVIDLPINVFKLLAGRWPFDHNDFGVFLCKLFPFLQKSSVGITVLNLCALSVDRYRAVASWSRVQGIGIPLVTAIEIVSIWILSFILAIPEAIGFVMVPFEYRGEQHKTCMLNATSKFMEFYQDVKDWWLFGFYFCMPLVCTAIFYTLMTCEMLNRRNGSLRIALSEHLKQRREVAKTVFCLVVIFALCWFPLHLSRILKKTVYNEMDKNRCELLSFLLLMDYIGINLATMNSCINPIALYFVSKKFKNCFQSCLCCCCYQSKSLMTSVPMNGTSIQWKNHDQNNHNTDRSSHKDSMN

[6] = biological target: Melanocortin receptor 4 (Homo sapiens, UniProt P32245); format: cell membranes, Membrane; details: hek293; further: in other assays of this panel Not Active means under 50% inhibition at 10 µM
[7] = biological target: T4, Cytochrome P450 1A2 (Homo sapiens, UniProt P05177); details: bti-tn-5b1-4; further: in other assays of this panel Not Active means under 50% inhibition at 10 µM
T4 sequence (P05177 whole entry): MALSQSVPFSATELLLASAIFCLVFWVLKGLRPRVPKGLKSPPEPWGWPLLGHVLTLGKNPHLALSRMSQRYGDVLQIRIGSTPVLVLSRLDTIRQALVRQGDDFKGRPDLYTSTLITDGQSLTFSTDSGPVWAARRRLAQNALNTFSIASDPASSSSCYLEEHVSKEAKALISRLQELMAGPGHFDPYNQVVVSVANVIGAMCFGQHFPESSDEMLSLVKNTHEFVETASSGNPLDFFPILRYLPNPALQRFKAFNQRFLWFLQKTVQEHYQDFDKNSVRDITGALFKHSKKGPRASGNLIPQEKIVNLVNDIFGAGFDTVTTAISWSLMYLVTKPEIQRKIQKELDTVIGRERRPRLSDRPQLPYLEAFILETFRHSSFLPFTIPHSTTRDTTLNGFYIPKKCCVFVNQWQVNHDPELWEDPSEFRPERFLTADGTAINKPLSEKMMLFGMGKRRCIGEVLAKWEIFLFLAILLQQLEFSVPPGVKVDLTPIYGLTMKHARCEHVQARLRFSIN

[8] = biological target: T5, Cytochrome P450 2A6 (Homo sapiens, UniProt P11509); details: bti-tn-5b1-4; further: in other assays of this panel Not Active means under 50% inhibition at 10 µM
T5 sequence (P11509 whole entry): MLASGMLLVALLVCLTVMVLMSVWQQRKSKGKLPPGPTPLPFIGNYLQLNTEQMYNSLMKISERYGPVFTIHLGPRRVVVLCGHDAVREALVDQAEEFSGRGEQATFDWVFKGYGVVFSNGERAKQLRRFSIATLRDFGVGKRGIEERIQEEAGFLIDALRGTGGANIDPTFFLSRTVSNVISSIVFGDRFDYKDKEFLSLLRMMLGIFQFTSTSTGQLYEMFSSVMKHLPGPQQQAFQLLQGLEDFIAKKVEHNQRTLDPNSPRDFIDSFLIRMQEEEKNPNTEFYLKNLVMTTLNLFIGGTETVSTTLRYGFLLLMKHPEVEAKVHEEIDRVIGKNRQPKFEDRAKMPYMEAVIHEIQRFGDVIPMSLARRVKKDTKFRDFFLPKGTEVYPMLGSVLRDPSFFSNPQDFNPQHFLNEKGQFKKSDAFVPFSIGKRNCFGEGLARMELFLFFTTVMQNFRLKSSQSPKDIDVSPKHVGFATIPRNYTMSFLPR

Beta-1 adrenergic receptor, sequence (P08588 whole entry): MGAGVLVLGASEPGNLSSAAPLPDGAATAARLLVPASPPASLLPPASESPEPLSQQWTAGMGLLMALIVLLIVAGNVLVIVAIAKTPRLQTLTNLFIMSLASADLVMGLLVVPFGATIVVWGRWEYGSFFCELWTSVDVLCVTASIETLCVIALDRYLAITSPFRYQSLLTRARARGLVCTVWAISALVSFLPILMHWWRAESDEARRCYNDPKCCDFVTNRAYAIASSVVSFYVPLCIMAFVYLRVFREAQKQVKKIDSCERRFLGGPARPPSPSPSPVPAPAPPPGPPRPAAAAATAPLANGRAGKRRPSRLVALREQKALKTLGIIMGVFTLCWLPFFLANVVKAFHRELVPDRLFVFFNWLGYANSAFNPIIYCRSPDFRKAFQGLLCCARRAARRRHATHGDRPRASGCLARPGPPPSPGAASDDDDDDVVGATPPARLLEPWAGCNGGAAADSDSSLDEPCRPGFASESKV
Melanocortin receptor 4, sequence (P32245 whole entry): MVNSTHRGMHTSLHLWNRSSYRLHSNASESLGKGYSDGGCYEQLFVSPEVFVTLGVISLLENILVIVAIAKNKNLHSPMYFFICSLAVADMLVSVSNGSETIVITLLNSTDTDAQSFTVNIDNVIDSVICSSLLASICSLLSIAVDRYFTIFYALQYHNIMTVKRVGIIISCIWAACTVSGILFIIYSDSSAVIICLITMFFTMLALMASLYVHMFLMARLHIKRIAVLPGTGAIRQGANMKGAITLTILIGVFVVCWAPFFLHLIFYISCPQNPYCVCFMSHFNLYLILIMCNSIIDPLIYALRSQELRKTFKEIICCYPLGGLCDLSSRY

C[C@](O)(CS(=O)(=O)c1ccc(F)cc1)C(=O)Nc1ccc(C#N)c(C(F)(F)F)c1 [(R)-BICALUTAMIDE]
Not Active: IC50 [1] | IC50 [2] | IC50 [3] | IC50 [4] | IC50 [5] | IC50 [6] | IC50 [7] | Ki [7] | IC50 [8] | Ki [8]

CC(=O)Nc1ccc(O)cc1 [ACETAMINOPHEN]
Not Active: IC50 [1] | IC50 [2] | IC50 [3] | IC50 [4] | IC50 [5] | IC50 [6] | IC50 [7] | Ki [7] | IC50 [8] | Ki [8]

COc1cc2c(c3oc(=O)c4c(c13)CCC4=O)[C@@H]1C=CO[C@@H]1O2 [AFLATOXIN]
Not Active: IC50 [1] | Ki [1] | IC50 [2] | Ki [2] | IC50 [3] | Ki [3] | IC50 [4] | Ki [4] | IC50 [5] | Ki [5] | IC50 [6] | Ki [6] | IC50 [7] | Ki [7] | IC50 [8] | Ki [8]

N=C(N)NC(=O)c1nc(Cl)c(N)nc1N [AMILORIDE]
Not Active: IC50 [1] | IC50 [2] | IC50 [3] | IC50 [4] | IC50 [5] | IC50 [6] | IC50 [7] | Ki [7] | IC50 [8] | Ki [8]

Cc1cc(=O)n(-c2ccccc2)n1C [ANTIPYRINE]
Not Active: IC50 [1] | IC50 [2] | IC50 [3] | IC50 [4] | IC50 [5] | IC50 [6] | IC50 [7] | Ki [7] | IC50 [8] | Ki [8]

CN1C(=O)COc2c(C(=O)NC3CN4CCC3CC4)cc(Cl)cc21 (stereo unspecified) [AZASETRON]
Not Active: IC50 [1] | IC50 [2] | IC50 [3] | IC50 [4] | IC50 [5] | IC50 [6] | IC50 [7] | Ki [7] | IC50 [8] | Ki [8]

C[C@H]1C[C@H]2[C@@H]3CCC4=CC(=O)C=C[C@]4(C)[C@@]3(Cl)[C@@H](O)C[C@]2(C)[C@@]1(O)C(=O)CO [BECLOMETHASONE]
Not Active: IC50 [1] | IC50 [2] | IC50 [3] | IC50 [4] | IC50 [5] | IC50 [6] | IC50 [7] | Ki [7] | IC50 [8] | Ki [8]

CCOC(=O)[C@H](CCc1ccccc1)N[C@H]1CCc2ccccc2N(CC(=O)O)C1=O [BENAZEPRIL]
Not Active: IC50 [1] | IC50 [2] | IC50 [3] | IC50 [4] | IC50 [5] | IC50 [6] | IC50 [7] | Ki [7] | IC50 [8] | Ki [8]

Nc1c(CC(=O)O)cccc1C(=O)c1ccc(Br)cc1 [BROMFENAC]
Not Active: IC50 [1] | IC50 [2] | IC50 [3] | IC50 [4] | IC50 [5] | IC50 [6] | IC50 [7] | Ki [7] | IC50 [8] | Ki [8]

CCCCN1CCCCC1C(=O)Nc1c(C)cccc1C.Cl (stereo unspecified) [BUPIVACAINE HYDROCHLORIDE]
Not Active: IC50 [1] | IC50 [2] | IC50 [3] | IC50 [4] | IC50 [5] | IC50 [6] | IC50 [7] | Ki [7] | IC50 [8] | Ki [8]

O=C1CC2(CCCC2)CC(=O)N1CCCCN1CCN(c2ncccn2)CC1 [BUSPIRONE]
Not Active: IC50 [1] | IC50 [2] | IC50 [3] | IC50 [4] | IC50 [5] | IC50 [6] | IC50 [7] | Ki [7] | IC50 [8] | Ki [8]

C[C@@]12C(=O)OC(=O)[C@]1(C)[C@H]1CC[C@@H]2O1 [CANTHARIDIN]
Not Active: IC50 [1] | IC50 [2] | IC50 [3] | IC50 [4] | IC50 [5] | IC50 [6] | IC50 [7] | Ki [7] | IC50 [8] | Ki [8]

ClC(Cl)Cl [CHLOROFORM]
Not Active: IC50 [1] | IC50 [2] | IC50 [3] | IC50 [4] | IC50 [5] | IC50 [6] | IC50 [7] | Ki [7] | IC50 [8] | Ki [8]

C=C1CC[C@H](O)C/C1=C/C=C1\CCC[C@]2(C)[C@@H]([C@H](C)CCCC(C)C)CC[C@@H]12 [CHOLECALCIFEROL]
Not Active: IC50 [1] | IC50 [2] | IC50 [3] | IC50 [4] | IC50 [5] | IC50 [6] | IC50 [7] | Ki [7] | IC50 [8] | Ki [8]

C[N+](C)(C)CCO.[Cl-] [CHOLINE CHLORIDE]
Not Active: IC50 [1] | IC50 [2] | IC50 [3] | IC50 [4] | IC50 [5] | IC50 [6] | IC50 [7] | Ki [7] | IC50 [8] | Ki [8]

CC(=O)OCC(=O)[C@@]1(O)CC[C@H]2[C@@H]3CCC4=CC(=O)CC[C@]4(C)[C@H]3C(=O)C[C@@]21C [CORTISONE ACETATE]
Not Active: IC50 [1] | IC50 [2] | IC50 [3] | IC50 [4] | IC50 [5] | IC50 [6] | IC50 [7] | Ki [7] | IC50 [8] | Ki [8]

O=c1ccc2ccccc2o1 [COUMARIN]
Not Active: IC50 [1] | IC50 [2] | IC50 [3] | IC50 [4] | IC50 [5] | IC50 [6] | IC50 [7] | Ki [7] | IC50 [8] | Ki [8]

CN(C)/N=N/c1[nH]cnc1C(N)=O [DACARBAZINE]
Not Active: IC50 [1] | IC50 [2] | IC50 [3] | IC50 [4] | IC50 [5] | IC50 [6] | IC50 [7] | Ki [7] | IC50 [8] | Ki [8]
